Measured values: PubChem BioAssay AID1963966 (Molecular Pharmacology Branch, DTP, NCI, 2024)
Values joined by “and” are separate entries in the source; they are usually repeats but may differ in a detail not shown here. Identical values can stand only once.

Test system: 935938-334-R-J1-PDC spheroids with HUVEC/MSC, viability
Assay: Anticancer human tumor 935938-334-R-J1-PDC patient-derived small intestine adenocarcinoma cell line growth inhibition [PI3K]
Details: for viability, T/C: stronger effect = lower value
Outline: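 Combination activity was assessed by viability in multicellular tumor spheroids carrying HUVEC and MSC components. Agents were tested with PI3K inhibitors from a Cmax-based top dose (or 10 microM) downward in half-log increments.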

[1] = curve of first compound, second compound 0.00316 µM
[2] = curve of first compound, second compound 0.01 µM
[3] = curve of first compound, second compound 0.0316 µM
[4] = curve of first compound, second compound 0.1 µM
[5] = curve of first compound, second compound 0.316 µM
[6] = curve of first compound, second compound 1 µM
[7] = second compound 0.00316 µM, first compound 0.0316 µM
[8] = second compound 0.00316 µM, first compound 0.1 µM
[9] = second compound 0.00316 µM, first compound 0.316 µM
[10] = second compound 0.00316 µM, first compound 1 µM
[11] = second compound 0.00316 µM, first compound 3.16 µM
[12] = second compound 0.00316 µM, first compound 10 µM
[13] = second compound 0.01 µM, first compound 0.0316 µM
[14] = second compound 0.01 µM, first compound 0.1 µM
[15] = second compound 0.01 µM, first compound 0.316 µM
[16] = second compound 0.01 µM, first compound 1 µM
[17] = second compound 0.01 µM, first compound 3.16 µM
[18] = second compound 0.01 µM, first compound 10 µM
[19] = second compound 0.0316 µM, first compound 0.0316 µM
[20] = second compound 0.0316 µM, first compound 0.1 µM
[21] = second compound 0.0316 µM, first compound 0.316 µM
[22] = second compound 0.0316 µM, first compound 1 µM
[23] = second compound 0.0316 µM, first compound 3.16 µM
[24] = second compound 0.0316 µM, first compound 10 µM
[25] = second compound 0.1 µM, first compound 0.0316 µM
[26] = second compound 0.1 µM, first compound 0.1 µM
[27] = second compound 0.1 µM, first compound 0.316 µM
[28] = second compound 0.1 µM, first compound 1 µM
[29] = second compound 0.1 µM, first compound 3.16 µM
[30] = second compound 0.1 µM, first compound 10 µM
[31] = second compound 0.316 µM, first compound 0.0316 µM
[32] = second compound 0.316 µM, first compound 0.1 µM
[33] = second compound 0.316 µM, first compound 0.316 µM
[34] = second compound 0.316 µM, first compound 1 µM
[35] = second compound 0.316 µM, first compound 3.16 µM
[36] = second compound 0.316 µM, first compound 10 µM
[37] = second compound 1 µM, first compound 0.0316 µM
[38] = second compound 1 µM, first compound 0.1 µM
[39] = second compound 1 µM, first compound 0.316 µM
[40] = second compound 1 µM, first compound 1 µM
[41] = second compound 1 µM, first compound 3.16 µM
[42] = second compound 1 µM, first compound 10 µM
[43] = curve of first compound, second compound 3.16 µM
[44] = curve of first compound, second compound 10 µM
[45] = second compound 3.16 µM, first compound 0.0316 µM
[46] = second compound 3.16 µM, first compound 0.1 µM
[47] = second compound 10 µM, first compound 0.0316 µM
[48] = second compound 10 µM, first compound 0.1 µM
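Also: compound exposure lasted seven days before viability was read.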
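For viability, T/C in this document: percent of vehicle DMSO treated spheroid viability so 100% = untreated.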

CC1(C)CCC(CN2CCN(c3ccc(C(=O)NS(=O)(=O)c4ccc(NCC5CCOCC5)c([N+](=O)[O-])c4)c(Oc4cnc5[nH]ccc5c4)c3)CC2)=C(c2ccc(Cl)cc2)C1 + CC(Nc1ccc2c(c1)OCCn1cc(N3C(=O)OCC3C(F)F)nc1-2)C(N)=O
IC50 [1]: 6.27 µM
IC50 [2]: 6 µM
IC50 [3]: 5.41 µM
IC50 [4]: 6 µM
IC50 [5]: 5.04 µM
IC50 [6]: 3.21 µM
viability, T/C [7]: 85.9%
viability, T/C [8]: 78.6%
viability, T/C [9]: 106%
viability, T/C [10]: 115%
viability, T/C [11]: 90.3%
viability, T/C [12]: 22.5%
viability, T/C [13]: 88.7%
viability, T/C [14]: 95.1%
viability, T/C [15]: 120%
viability, T/C [16]: 83.1%
viability, T/C [17]: 80.8%
viability, T/C [18]: 26.8%
viability, T/C [19]: 90.5%
viability, T/C [20]: 78.8%
viability, T/C [21]: 76.2%
viability, T/C [22]: 103%
viability, T/C [23]: 74.4%
viability, T/C [24]: 22.1%
viability, T/C [25]: 88.5%
viability, T/C [26]: 90.9%
viability, T/C [27]: 84.5%
viability, T/C [28]: 82%
viability, T/C [29]: 100%
viability, T/C [30]: 18.6%
viability, T/C [31]: 69.6%
viability, T/C [32]: 71.3%
viability, T/C [33]: 76.3%
viability, T/C [34]: 68.8%
viability, T/C [35]: 72.7%
viability, T/C [36]: 18.7%
viability, T/C [37]: 62.6%
viability, T/C [38]: 59.7%
viability, T/C [39]: 57%
viability, T/C [40]: 65.2%
viability, T/C [41]: 47.6%
viability, T/C [42]: 20.3%

CC(C)NCC(C(=O)N1CCN(c2ncnc3c2C(C)CC3O)CC1)c1ccc(Cl)cc1 (stereo unspecified)
viability, T/C (compound 0.1 µM): 85.6% [middle of 4 runs]
viability, T/C (compound 0.316 µM): 86.1% [middle of 4 runs]
viability, T/C (compound 1 µM): 74.3% [middle of 4 runs]
IC50 (curve of compound): > 10 µM and 1.87 µM and 5.86 µM

C=CC(=O)N1CCN(c2nc(=O)n(-c3c(C)ccnc3C(C)C)c3nc(-c4c(O)cccc4F)c(F)cc23)C(C)C1 (stereo unspecified)
viability, T/C (compound 0.1 µM): 95.8% [middle of 4 runs]
viability, T/C (compound 1 µM): 111% [middle of 4 runs]
viability, T/C (compound 10 µM): 92.7% [middle of 4 runs]
IC50 (curve of compound): > 10 µM

C[C@@H](NC(=O)c1ncnc(N)c1Cl)c1ncc(C(=O)Nc2cc(C(F)(F)F)c(Cl)cn2)s1 + Cc1nc(NC(=O)N2CCCC2C(N)=O)sc1-c1ccnc(C(C)(C)C(F)(F)F)c1
IC50 [3]: > 10 µM
IC50 [4]: > 10 µM
IC50 [5]: > 10 µM
IC50 [6]: > 10 µM
IC50 [43]: 6.67 µM
IC50 [44]: 0.272 µM
viability, T/C [19]: 112%
viability, T/C [20]: 100%
viability, T/C [21]: 98.7%
viability, T/C [22]: 88.1%
viability, T/C [23]: 90.7%
viability, T/C [24]: 81.6%
viability, T/C [25]: 94.1%
viability, T/C [26]: 108%
viability, T/C [27]: 101%
viability, T/C [28]: 115%
viability, T/C [29]: 95.5%
viability, T/C [30]: 68.6%
viability, T/C [31]: 104%
viability, T/C [32]: 108%
viability, T/C [33]: 109%
viability, T/C [34]: 87.8%
viability, T/C [35]: 89.8%
viability, T/C [36]: 78%
viability, T/C [37]: 105%
viability, T/C [38]: 80.4%
viability, T/C [39]: 87.4%
viability, T/C [40]: 89.5%
viability, T/C [41]: 79.9%
viability, T/C [42]: 68.2%
viability, T/C [45]: 53.6%
viability, T/C [46]: 55.6%
viability, T/C (second compound 3.16 µM, first compound 0.316 µM): 79.6%
viability, T/C (second compound 3.16 µM, first compound 1 µM): 62%
viability, T/C (second compound 3.16 µM, first compound 3.16 µM): 61.9%
viability, T/C (second compound 3.16 µM, first compound 10 µM): 31.2%
viability, T/C [47]: 50.6%
viability, T/C [48]: 63.9%
viability, T/C (second compound 10 µM, first compound 0.316 µM): 41.4%
viability, T/C (second compound 10 µM, first compound 1 µM): 44.5%
viability, T/C (second compound 10 µM, first compound 3.16 µM): 37.2%
viability, T/C (second compound 10 µM, first compound 10 µM): 22.8%

Cn1ncnc1[C@H]1c2n[nH]c(=O)c3cc(F)cc(c23)N[C@@H]1c1ccc(F)cc1 + CC(Nc1ncnc2nc[nH]c12)c1cc2cccc(Cl)c2c(=O)n1-c1ccccc1
IC50 [3]: > 0.1 µM
IC50 [4]: > 0.1 µM
IC50 [5]: > 0.1 µM
IC50 [6]: > 0.1 µM
IC50 [43]: > 0.1 µM
IC50 [44]: > 0.1 µM
viability, T/C (second compound 0.0316 µM, first compound 0.000316 µM): 95.3%
viability, T/C (second compound 0.0316 µM, first compound 0.001 µM): 84.7%
viability, T/C (second compound 0.0316 µM, first compound 0.00316 µM): 82.9%
viability, T/C (second compound 0.0316 µM, first compound 0.01 µM): 108%
viability, T/C [19]: 102%
viability, T/C [20]: 84.3%
viability, T/C (second compound 0.1 µM, first compound 0.000316 µM): 86.7%
viability, T/C (second compound 0.1 µM, first compound 0.001 µM): 84.5%
viability, T/C (second compound 0.1 µM, first compound 0.00316 µM): 91.8%
viability, T/C (second compound 0.1 µM, first compound 0.01 µM): 80.2%
viability, T/C [25]: 85.1%
viability, T/C [26]: 88.1%
viability, T/C (second compound 0.316 µM, first compound 0.000316 µM): 109%
viability, T/C (second compound 0.316 µM, first compound 0.001 µM): 85.4%
viability, T/C (second compound 0.316 µM, first compound 0.00316 µM): 83.6%
viability, T/C (second compound 0.316 µM, first compound 0.01 µM): 97.4%
viability, T/C [31]: 81.3%
viability, T/C [32]: 83.2%
viability, T/C (second compound 1 µM, first compound 0.000316 µM): 102%
viability, T/C (second compound 1 µM, first compound 0.001 µM): 115%
viability, T/C (second compound 1 µM, first compound 0.00316 µM): 86.3%
viability, T/C (second compound 1 µM, first compound 0.01 µM): 48.2%
viability, T/C [37]: 93.1%
viability, T/C [38]: 87.2%
viability, T/C (second compound 3.16 µM, first compound 0.000316 µM): 98%
viability, T/C (second compound 3.16 µM, first compound 0.001 µM): 71.9%
viability, T/C (second compound 3.16 µM, first compound 0.00316 µM): 90.9%
viability, T/C (second compound 3.16 µM, first compound 0.01 µM): 70.9%
viability, T/C [45]: 83.2%
viability, T/C [46]: 84.1%
viability, T/C (second compound 10 µM, first compound 0.000316 µM): 62.7%
viability, T/C (second compound 10 µM, first compound 0.001 µM): 89%
viability, T/C (second compound 10 µM, first compound 0.00316 µM): 94.6%
viability, T/C (second compound 10 µM, first compound 0.01 µM): 81.5%
viability, T/C [47]: 91.6%
viability, T/C [48]: 67.8%

C[C@@H](NC(=O)c1ncnc(N)c1Cl)c1ncc(C(=O)Nc2cc(C(F)(F)F)c(Cl)cn2)s1 + COc1c(OCCCN2CCOCC2)ccc2c3n(c(=NC(=O)c4cnc(N)nc4)nc12)CCN3
IC50 [1]: > 10 µM
IC50 [2]: > 10 µM
IC50 [3]: > 10 µM
IC50 [4]: 6.99 µM
IC50 [5]: < 0.0316 µM
IC50 [6]: < 0.0316 µM
viability, T/C [7]: 124%
viability, T/C [8]: 105%
viability, T/C [9]: 116%
viability, T/C [10]: 108%
viability, T/C [11]: 123%
viability, T/C [12]: 82.3%
viability, T/C [13]: 104%
viability, T/C [14]: 122%
viability, T/C [15]: 115%
viability, T/C [16]: 117%
viability, T/C [17]: 101%
viability, T/C [18]: 90%
viability, T/C [19]: 81.3%
viability, T/C [20]: 94.4%
viability, T/C [21]: 96.2%
viability, T/C [22]: 85.4%
viability, T/C [23]: 76.3%
viability, T/C [24]: 69.9%
viability, T/C [25]: 67.5%
viability, T/C [26]: 65.7%
viability, T/C [27]: 73.2%
viability, T/C [28]: 71.2%
viability, T/C [29]: 60.8%
viability, T/C [30]: 44.5%
viability, T/C [31]: 46.3%
viability, T/C [32]: 42.1%
viability, T/C [33]: 38.9%
viability, T/C [34]: 41.8%
viability, T/C [35]: 40.1%
viability, T/C [36]: 42.9%
viability, T/C [37]: 36.8%
viability, T/C [38]: 41.3%
viability, T/C [39]: 40.8%
viability, T/C [40]: 37.3%
viability, T/C [41]: 37.5%
viability, T/C [42]: 34.7%
